# Laboratory results published in paper PMC8997848, “How Cargo Identity Alters the Uptake of Cell-Penetrating Peptide (CPP)/Cargo Complexes: A Study on the Effect of Net Cargo Charge and Length” (Cells, 2022).
# What was measured:
# [1] = system: HeLa cells; experiment: Live-cell fluorescent microscopy with line scans of intracellular peptide distribution; assay type: cell-based; settings: for cellular uptake seen by fluorescence microscopy / intracellular distribution of fluorescence: 10 μM peptide, 60 min, 37 °C; for cellular uptake seen by fluorescence microscopy: FITC filter (Figure 3); for intracellular distribution of fluorescence: images and line scans across individual cells (Figures 3, 4, S8)
# Experimental: One day prior to the experiment, HeLa cells were seeded in 8-chambered Falcon Culture Slides (Corning) at a density of 3 × 10^4 cells/mL. On the day of the experiment, cells were washed once with ECB before incubation with 10 μM peptide solution (500 μL/well) for 1 h at 37 °C. Following incubation, cells were washed twice with ECB then incubated with 8 μM Hoechst 3342 nuclei acid stain (ThermoFisher Scientific, Carlsbad, CA, USA) for 20 min at room temperature. Cellular fluorescence was visualized using a Leica DMi8 inverted microscope outfitted with a 40× objective (Leica N PLAN L, 0.55× correction). Images were acquired using the digital CMOS camera C11440 (Hamamatsu Photonics K.K., Japan) with a fixed exposure time of 500 ms for the FITC filter, 150 ms for the DAPI filter, and 20 ms for brightfield. The following excitation/emission filters (Chroma Tech. Corp, Bellows Falls, VT, USA) were used to image the device: fluorescein isothiocyanate-FITC (λex 440–520 nm and λem 497–557 nm) for capturing the signal from FAM and DAPI (λex 335–385 nm and λem 405–465 nm) for capturing the signal from the Hoescht stain. Image acquisition was controlled using the Leica Application Suite software (LAS X, version 3.7.4.23463), where all images were recorded using the same parameters. The imaging was followed by quantitative analysis, where a manual line scan region of interest (ROI) was drawn across the center of the cells to quantify their fluorescent signals. Random ROIs were also drawn in free space not containing cells to measure background noise for each image. The fluorescent values were normalized by subtracting the noise from the measured signal.
# [2] = system: HeLa cells; experiment: Quantification of CPP and CPP/cargo uptake by fluorometry of FAM signal in cell lysate; assay type: cell-based; settings: for time dependence of uptake (single factor ANOVA): 10 µM peptide, 10, 20, 40, 60, 100, 120 min, triplicate (Tables S1, S6); for uptake of CPP/cargo complex compared to the H1 CPP alone (in words) / effect of net cargo length and arginine position on cellular uptake (one-way ANOVA): 10 µM; for uptake of CPP/cargo complex compared to the H1 CPP alone (in words): uptake normalized against H1, triplicate (Figure 1A); for time-dependent analysis of peptide uptake (in words): 10-120 min, triplicate (Figures S5, S7); for effect of net cargo length and arginine position on cellular uptake (one-way ANOVA): 1 h, cargoes of +2 charge, 4 or 8 residues, triplicate (Figure 1B, Table S3)
# Experimental: The quantification of peptide uptake was performed using a protocol previously utilized by Safa et al. and Vaithiyanathan et al.. Three days prior to the experiment, HeLa cells were seeded at a density of 1 × 10^4 cells/mL in 12 well plates. Prior to experiments, peptides were reconstituted in sodium phosphate buffer (2.26 mM NaH2PO4·H2O and 8.43 mM Na2HPO4·7H2O) and the peptide concentration was determined using a NanoDrop at the wavelength of 492 nm using the UV-vis function. On the day of the experiment, peptides were diluted to the desired final concentration with extracellular buffer, ECB (5.036 mM HEPES pH 7.4, 136.89 mM NaCl, 2.68 mM KCl, 2.066 mM MgCl2·6H2O, 1.8 mM, CaCl2·2H2O, and 5.55 mM glucose). Cells were washed once with PBS followed by peptide incubation (500 μL/well) at 37 °C. Plates were wrapped in aluminum foil during incubation to avoid deactivating the FAM tag on the peptide. Following the incubation, the peptide solutions were removed, and cells were washed twice with ECB. Cells were then trypsinized (250 μL/well) for 10 min at room temperature. The cells were resuspended in ECB (1 mL/well) and transferred to microcentrifuge tubes. The samples were centrifuged at 1800 rcf for 2.5 min. The supernatant was removed, and the isolated cells were lysed with 0.1 M NaOH (250 μL/tube). Samples were centrifuged again at 14,000 rcf for 5 min to remove any remaining protein bound to the membranes before transferring 150 μL of clarified lysate to a 96 well plate. Fluorometry (Perkin Elmer (Waltham, MA, USA) Wallac 1420 VICTOR2 multilabel HTS counter) was used to quantify the signal resulting from the FAM tag using an excitation filter of 490 nm and an emission filter of 535 nm. For each experiment, a no peptide control (cells incubated with ECB only) was performed. To measure the background signal of each peptide, the peptide solutions used in each experiment were analyzed by fluorometry to normalize the fluorescent signal for each sample. Signals were normalized using Equation (1):Normalized Fluorescence = 1000 × (F − C)/(P − B)(1) where F denotes the fluorescent signal of cells incubated with peptide, C denotes the fluorescent signal of cells incubated with no peptide, P denotes the average fluorescent signal of the peptide in suspension, and B denotes the average fluorescent signal of the ECB. Reported data for each experiment is the average of triplicate samples. Statistical analysis was carried out using JMP Pro 16 software (SAS Institute).
# [3] = system: HeLa cells; experiment: alamarBlue cell viability assay; assay type: cell-based; settings: 37 °C, 4 h (2 h in method and Figure 2), then alamarBlue 4 h, normalized to no peptide control, triplicate; for effect on cellular viability at 5 µM: HeLa cells, 5 µM peptide; for decrease in cellular viability: HeLa cells, 10, 20, and 30 μM peptide
# Experimental: Two days prior to the experiment, HeLa cells were plated at a density of 1 × 10^5 cells/well in a 96 well plate. Cells were washed once with PBS and incubated with peptide solutions for 2 h at 37 °C. Following this incubation period, cells were washed with ECB and incubated with a mixture of 10 μL alamarBlue Viability Reagent (ThermoFisher Scientific, Carlsbad, CA, USA) in 90 μL serum-free media for 4 h at 37 °C. The fluorescent signal of alamarBlue was measured using fluorometry with an excitation filter of 532 nm and an emission filter of […]. A no peptide control was also performed to normalize the fluorescent signals. Signals were normalized using Equation (2):Normalized Cell Viability = F/C(2) where F denotes the fluorescent signal of cells incubated with peptide and C denotes the fluorescent signal of cells incubated with no peptide. The reported data are the average of triplicate samples.
# [4] = cited from earlier work
# Source text: With the majority of well characterized CPPs being unstructured, and considering the differences in uptake levels, cytotoxicity, and intracellular stability that has been observed when comparing unstructured and structured CPPs, it was important to compare the effects of net cargo charge and length on both unstructured (nona-arginine, R1) and structured (RWRWR, H1) CPPs. To examine the ...
# [5] = system: HeLa cells; settings: cited from earlier work
# Source text: In addition to improving the permeability and stability of the CPPs themselves, there is significant interest in utilizing known CPPs to deliver bioactive cargoes, such as nanoparticles, therapeutics, or biosensors, to cells. CPPs have found great success of late as delivery vehicles for peptide-based therapeutics, such as PROTACs (proteolysis targeting chimeras), which facilitate the degradation of “undruggable” proteins by selectively ubiquitinating the target protein for proteasome-mediated degradation. […] With the majority of well characterized CPPs being unstructured, and considering the differences in uptake levels, cytotoxicity, and intracellular stability that has been observed when comparing unstructured and structured CPPs, it was important to compare the effects of net cargo charge and length on both unstructured (nona-arginine, R1) and structured (RWRWR, H1) CPPs. To examine the ...
# [6] = 10 µM peptide, FAM fluorometry of lysate
# [7] = 10 µM peptide, 60 min, 37 °C, FAM fluorometry of lysate, triplicate (Figure 5)
substance,measurement,setting,value
"RWVRVpGO(FAM)WIRQ-GEGEGEGE [H7, H1 CPP with 8-residue cargo, net charge −4]",cellular uptake seen by fluorescence microscopy,[1],impermeability
same,time dependence of uptake (single factor ANOVA),[2],no time dependence
same,uptake of CPP/cargo complex compared to the H1 CPP alone (in words),"[2]; 60 min, 37 °C",diminished uptake
"RWVRVpGO(FAM)WIRQ [H1, RWRWR β-hairpin CPP, FAM on ornithine side chain]",cellular uptake seen by fluorescence microscopy,[1],successful cellular uptake
same,intracellular distribution of fluorescence,[1],evenly distributed throughout the cell
same,effect on cellular viability at 5 µM,[3],did not result in a decrease in cellular viability
same,decrease in cellular viability,[3],~ 5%
same,increased intracellular stability compared to nona-arginine CPP,[4],20 fold
same,time needed for uptake / sufficient internalization,[5]; HeLa cells,< 10 min
same,time dependence of uptake (single factor ANOVA),[2],demonstrate time dependence
same,time-dependent analysis of peptide uptake (in words),[2]; [6],greatest penetration
"RWVRVpGO(FAM)WIRQ-GGGGGGGG [H6, H1 CPP with 8-residue cargo, net charge 0]",time dependence of uptake (single factor ANOVA),[2],demonstrate time dependence
same,uptake of CPP/cargo complex compared to the H1 CPP alone (in words),"[2]; 60 min, 37 °C",diminished uptake
"RWVRVpGO(FAM)WIRQ-GRGRGGGG [H9, H1 CPP with 8-residue +2 cargo, arginines closer to the N-terminus]",effect of net cargo length and arginine position on cellular uptake (one-way ANOVA),[2],no significant difference in cellular uptake
"RWVRVpGO(FAM)WIRQ-GRGRGRGR [H5, H1 CPP with 8-residue cargo, net charge +4]",cellular uptake seen by fluorescence microscopy,[1],successful cellular uptake
same,intracellular distribution of fluorescence,[1],punctate regions of increased fluorescence
same,cell-to-cell heterogeneity of uptake compared to cells incubated with H1,"[1]; 10 μM, average fluorescence intensity in individual cells (Figure S6)",substantially higher heterogeneity
same,average uptake from single-cell fluorescence intensity compared to H1,"[1]; 10 μM, line scans across 20 single cells, normalized against background (Figure S6)",substantially higher average uptake
same,effect on cellular viability at 5 µM,[3],did not result in a decrease in cellular viability
same,decrease in cellular viability,[3],~ 5%
same,increase in CPP/cargo uptake on increasing arginine residues from 2 (H2) to 4 (H5),"[2]; 10 µM peptide in ECB, 60 min, 37 °C, trypsinized, lysed in 0.1 M NaOH, FAM fluorometry ex 490/em 535 nm, average of triplicate, compared to H2",58%
same,time dependence of uptake (single factor ANOVA),[2],demonstrate time dependence
same,time-dependent analysis of peptide uptake (in words),[2]; [6],greatest penetration
"FAM-RRRRRRRRR-GRGR [R2, nona-arginine CPP with 4-residue cargo GRGR, net charge +2]",time dependence of uptake (single factor ANOVA),[2],time-dependent
same,time-dependent analysis of peptide uptake (in words),[2]; [6],greater uptake that the R1 CPP
same,"increase in uptake compared to counterpart with H1 CPP (H2 and H5, respectively)",[2]; [7],140%
same,increase in uptake compared to the R1 CPP,[2]; [7],29%
"RWVRVpGO(FAM)WIRQ-GRGR [H2, H1 CPP with 4-residue cargo GRGR, net charge +2]",effect on cellular viability at 5 µM,[3],did not result in a decrease in cellular viability
same,decrease in cellular viability,[3],~ 5%
same,time dependence of uptake (single factor ANOVA),[2],demonstrate time dependence
same,time-dependent analysis of peptide uptake (in words),[2]; [6],greatest penetration
same,effect of net cargo length and arginine position on cellular uptake (one-way ANOVA),[2],no significant difference in cellular uptake
"RWVRVpGO(FAM)WIRQ-GEGE [H4, H1 CPP with 4-residue cargo GEGE, net charge −2]",time dependence of uptake (single factor ANOVA),[2],demonstrate time dependence
same,uptake of CPP/cargo complex compared to the H1 CPP alone (in words),"[2]; 60 min, 37 °C",diminished uptake
"RWVRVpGO(FAM)WIRQ-GGGG [H3, H1 CPP with 4-residue cargo GGGG, net charge 0]",time dependence of uptake (single factor ANOVA),[2],no time dependence
same,uptake of CPP/cargo complex compared to the H1 CPP alone (in words),"[2]; 60 min, 37 °C",diminished uptake
"RWVRVpGO(FAM)WIRQ-GGGGGRGR [H8, H1 CPP with 8-residue +2 cargo, arginines closer to the C-terminus]",effect of net cargo length and arginine position on cellular uptake (one-way ANOVA),[2],no significant difference in cellular uptake
"FAM-RRRRRRRRR-GRGRGRGR [R3, nona-arginine CPP with 8-residue cargo, net charge +4]",time dependence of uptake (single factor ANOVA),[2],time-dependent
same,time-dependent analysis of peptide uptake (in words),[2]; [6],greater uptake that the R1 CPP
same,"increase in uptake compared to counterpart with H1 CPP (H2 and H5, respectively)",[2]; [7],140%
same,increase in uptake compared to the R1 CPP,[2]; [7],103%
"FAM-RRRRRRRRR [R1, unstructured nona-arginine CPP, FAM labelled; commercial peptide ARG from AnaSpec, reference compound]",intracellular distribution of fluorescence,[1],punctate regions
same,uptake efficiency compared to the RWRWR (H1) CPP,[5],2 fold
"FAM-RRRRRRRRR-GGGGGGGG [R4, nona-arginine CPP with 8-residue neutral cargo]",decrease in cellular internalization compared to R1 CPP,[2]; [7],50%
